Measured values taken from ChEMBL document CHEMBL1201862, “PubChem BioAssay data set” (2004).
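Briefly, cells in 96-well plates were exposed to five compound concentrations for 48 h, and endpoints were estimated by linear interpolation. Here, GI50 denotes the concentration required for 50% inhibition of growth.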 Calls of active or inactive are those of the source. Rule as the data show it: active = GI50 up to about 1.1 µM and inactive = higher.

Legend:
Experiment in all cases: inhibition of tumour cell growth, NCI panel, 48 h
[1] = tested on: A549
[2] = tested on: CAKI-1
[3] = tested on: DU-145
[4] = tested on: HCC 2998
[5] = tested on: HCT-116
[6] = tested on: HCT-15
[7] = tested on: HOP-92
[8] = tested on: HT-29
[9] = tested on: K562
[10] = tested on: MCF7
[11] = tested on: NCI-H226
[12] = tested on: NCI-H23
[13] = tested on: NCI-H460
[14] = tested on: NCI-H522
[15] = tested on: OVCAR-5
[16] = tested on: RXF 393
[17] = tested on: SF-295
[18] = tested on: SF-539
[19] = tested on: BT-549
[20] = tested on: SK-MEL-2

SMILES	GI50 [1]	GI50 [2]	GI50 [3]	GI50 [4]	GI50 [5]	GI50 [6]	GI50 [7]	GI50 [8]	GI50 [9]	GI50 [10]	GI50 [11]	GI50 [12]	GI50 [13]	GI50 [14]	GI50 [15]	GI50 [16]	GI50 [17]	GI50 [18]	GI50 [19]	GI50 [20]
CCCCCCCCCCCCCCCCCC(=O)OCC(COC(=O)CCCN)OC(=O)CCCN (stereo not drawn)	4.1 µM (inactive)	18.7 µM (inactive)	19.6 µM (inactive)	18.5 µM (inactive)	19.5 µM (inactive)	23.7 µM	13.4 µM (inactive)	16.1 µM (inactive)	35.6 µM (inactive)	24.4 µM (inactive)	20.6 µM (inactive)	16.4 µM (inactive)	14.9 µM (inactive)	21 µM (inactive)	15.9 µM (inactive)	15.1 µM (inactive)	19.4 µM (inactive)	18.2 µM (inactive)		
Cc1cc2nc3n(c2cc1C)C(c1c(F)cccc1F)SC3 (stereo not drawn)	23.7 µM (inactive)	17.3 µM (inactive)		21.2 µM (inactive)	14.1 µM (inactive)	> 10 µM		18.5 µM (inactive)	17.6 µM (inactive)	17.5 µM (inactive)	10.5 µM (inactive)	16.5 µM (inactive)	18.1 µM (inactive)	21.3 µM (inactive)	19.2 µM (inactive)	20.8 µM (inactive)	22.3 µM (inactive)	19.9 µM (inactive)	28.1 µM (inactive)	18.5 µM (inactive)
C=CC1(O)CCCC=C1COCc1ccccc1 (stereo not drawn)	> 100 µM (inactive)	> 100 µM (inactive)	> 100 µM (inactive)	> 100 µM (inactive)	51.3 µM (inactive)	65.8 µM	52 µM (inactive)	93.5 µM (inactive)	32.2 µM (inactive)	> 100 µM (inactive)	> 100 µM (inactive)	98.6 µM (inactive)	> 100 µM (inactive)	16 µM (inactive)	> 100 µM (inactive)	> 100 µM (inactive)	> 100 µM (inactive)			> 100 µM (inactive)
O=C(CC(C(=O)c1ccsc1)c1ccc2c(c1)OCO2)c1ccccc1 (stereo not drawn)	8.17 µM (inactive)	> 100 µM (inactive)	> 100 µM (inactive)	> 100 µM (inactive)	> 100 µM (inactive)	> 100 µM	> 100 µM (inactive)	> 100 µM (inactive)	> 100 µM (inactive)	88.3 µM (inactive)	> 100 µM (inactive)	0.209 µM (active)	94 µM (inactive)	59 µM (inactive)	> 100 µM (inactive)	> 100 µM (inactive)	> 100 µM (inactive)	> 100 µM (inactive)		
O=c1[nH]nc(Cc2ccccc2)n1C1CCCC1	> 100 µM (inactive)	> 100 µM (inactive)	> 100 µM (inactive)	> 100 µM (inactive)	> 100 µM (inactive)	> 100 µM		> 100 µM (inactive)	> 100 µM (inactive)	> 100 µM (inactive)	> 100 µM (inactive)	> 100 µM (inactive)	> 100 µM (inactive)	> 100 µM (inactive)	> 100 µM (inactive)	> 100 µM (inactive)	> 100 µM (inactive)	> 100 µM (inactive)		
Cc1csc2c1C(=O)c1ccsc1C2=O	1.72 µM (inactive)	19.6 µM (inactive)	1.88 µM (inactive)	6.11 µM (inactive)	2.17 µM (inactive)	1.49 µM	3.56 µM (inactive)	2.65 µM (inactive)	2.85 µM (inactive)	1.41 µM (inactive)	11 µM (inactive)	1.16 µM (inactive)	1.87 µM (inactive)	2.21 µM (inactive)	1.96 µM (inactive)	3.21 µM (inactive)	1.59 µM (inactive)	2.01 µM (inactive)		2.03 µM (inactive)
O=C(CSCC(=O)N/N=C/c1cc(I)cc(I)c1O)N/N=C/c1cc(I)cc(I)c1O	27.4 µM (inactive)	18.3 µM (inactive)	17.7 µM (inactive)	12.8 µM (inactive)	9.29 µM (inactive)	17.9 µM	39.5 µM (inactive)	32.9 µM (inactive)	11.1 µM (inactive)	15.1 µM (inactive)	7.91 µM (inactive)	11.6 µM (inactive)	25.6 µM (inactive)	6.38 µM (inactive)	39.5 µM (inactive)	10.6 µM (inactive)	13.6 µM (inactive)	7.57 µM (inactive)		23.7 µM (inactive)
c1ccc(C2CC(N3CCOCC3)=Nc3ccccc3N2)cc1 (stereo not drawn)	> 100 µM (inactive)	> 100 µM (inactive)	> 100 µM (inactive)		> 100 µM (inactive)	> 100 µM		> 100 µM (inactive)	58.2 µM (inactive)		> 100 µM (inactive)	> 100 µM (inactive)	> 100 µM (inactive)	> 100 µM (inactive)	> 100 µM (inactive)	78.5 µM (inactive)	> 100 µM (inactive)	> 100 µM (inactive)	> 100 µM (inactive)	> 100 µM (inactive)
Cc1ccc(NC(=O)CCC(=O)C(C#N)c2ccc(Cl)cc2)cc1C (stereo not drawn)	> 100 µM (inactive)	> 100 µM (inactive)		> 100 µM (inactive)	> 100 µM (inactive)	> 100 µM	> 100 µM (inactive)	> 100 µM (inactive)	> 100 µM (inactive)		> 100 µM (inactive)	> 100 µM (inactive)	> 100 µM (inactive)	> 100 µM (inactive)	> 100 µM (inactive)	> 100 µM (inactive)	> 100 µM (inactive)	> 100 µM (inactive)		> 100 µM (inactive)
COc1ccc(-c2ncn(C[Si](C)(C)C)c2-c2ccc(OC)cc2)cc1	4.31 µM (inactive)	5.85 µM (inactive)		3.17 µM (inactive)	2.92 µM (inactive)	4.51 µM	4.7 µM (inactive)	2.84 µM (inactive)	0.472 µM (active)	8.59 µM (inactive)	4.8 µM (inactive)	3.87 µM (inactive)	3.77 µM (inactive)	4.28 µM (inactive)	5.02 µM (inactive)	6.25 µM (inactive)	4.24 µM (inactive)	10.5 µM (inactive)	22.4 µM (inactive)	7.08 µM (inactive)
O=CNNC(=O)Nc1ccc(Cl)cc1	> 100 µM (inactive)		> 100 µM (inactive)	> 100 µM (inactive)	> 100 µM (inactive)	> 100 µM	26.9 µM (inactive)	> 100 µM (inactive)	> 100 µM (inactive)	> 100 µM (inactive)	31.1 µM (inactive)	> 100 µM (inactive)			> 100 µM (inactive)	> 100 µM (inactive)	33.7 µM (inactive)	> 100 µM (inactive)		
CN(C)c1n/c(=N/Cc2cccs2)ss1	> 10 µM (inactive)	> 10 µM (inactive)	> 10 µM (inactive)	> 10 µM (inactive)	> 10 µM (inactive)	> 10 µM	> 10 µM (inactive)	> 10 µM (inactive)	3.4 µM (inactive)	> 10 µM (inactive)	> 10 µM (inactive)	> 10 µM (inactive)	> 10 µM (inactive)	2.11 µM (inactive)	> 10 µM (inactive)	> 10 µM (inactive)	> 10 µM (inactive)	> 10 µM (inactive)		
COC(=O)c1c(-c2cc(OC)c(OC)c(OC)c2)oc2ccccc2c1=O	83.8 µM (inactive)	75.3 µM (inactive)		> 100 µM (inactive)	48.3 µM (inactive)	15.4 µM	96.6 µM (inactive)	> 100 µM (inactive)	42.8 µM (inactive)		> 100 µM (inactive)	> 100 µM (inactive)	76.7 µM (inactive)	94 µM (inactive)	> 100 µM (inactive)	53.6 µM (inactive)	> 100 µM (inactive)	> 100 µM (inactive)		> 100 µM (inactive)
O=C1/C(=C/c2ccccc2)N=C2Sc3c([nH]cnc3=O)N12	> 100 µM (inactive)	> 100 µM (inactive)	> 100 µM (inactive)	> 100 µM (inactive)	> 100 µM (inactive)	68.9 µM	> 100 µM (inactive)	> 100 µM (inactive)	28.2 µM (inactive)	> 100 µM (inactive)	78.2 µM (inactive)	> 100 µM (inactive)		> 100 µM (inactive)	> 100 µM (inactive)	> 100 µM (inactive)	> 100 µM (inactive)	> 100 µM (inactive)		> 100 µM (inactive)
CNC(=S)N/N=C(\C)c1cc(OC)ccc1O	> 100 µM (inactive)	> 100 µM (inactive)	> 100 µM (inactive)	> 100 µM (inactive)	> 100 µM (inactive)	63.1 µM	> 100 µM (inactive)	0.951 µM (active)	3.22 µM (inactive)			> 100 µM (inactive)	> 100 µM (inactive)	3.9 µM (inactive)	> 100 µM (inactive)	> 100 µM (inactive)	> 100 µM (inactive)	> 100 µM (inactive)	> 100 µM (inactive)	> 100 µM (inactive)
O=[N+]([O-])c1cc([N+](=O)[O-])c(C(Cl)C(Cl)c2ccccc2)cc1C(Cl)C(Cl)c1ccccc1 (stereo not drawn)	2.05 µM (inactive)	1.71 µM (inactive)		1.76 µM (inactive)	1.19 µM (inactive)	1.48 µM	1.6 µM (inactive)	2.17 µM (inactive)	1.69 µM (inactive)		2.23 µM (inactive)	1.65 µM (inactive)	2.02 µM (inactive)	1.61 µM (inactive)	2.14 µM (inactive)	1.33 µM (inactive)	2.15 µM (inactive)	1.8 µM (inactive)		2 µM (inactive)
